Results as given in article PMC12301304 (Frontiers in Pharmacology, 2025).
Like-named read-outs stand apart in the source and are kept apart here.

Columns and labels:
CYP2c13 = molecular target: T1, CYP2c13 (Rattus norvegicus, UniProt P20814); assay: RLM incubation: metabolic clearance rate of mephenytoin (CYP2c13); details: RLM 0.5 mg/mL, 30 min 37°C, inhibitor added, blank control 15.97 ± 0.68, n = 3
T1 sequence (P20814 1-490): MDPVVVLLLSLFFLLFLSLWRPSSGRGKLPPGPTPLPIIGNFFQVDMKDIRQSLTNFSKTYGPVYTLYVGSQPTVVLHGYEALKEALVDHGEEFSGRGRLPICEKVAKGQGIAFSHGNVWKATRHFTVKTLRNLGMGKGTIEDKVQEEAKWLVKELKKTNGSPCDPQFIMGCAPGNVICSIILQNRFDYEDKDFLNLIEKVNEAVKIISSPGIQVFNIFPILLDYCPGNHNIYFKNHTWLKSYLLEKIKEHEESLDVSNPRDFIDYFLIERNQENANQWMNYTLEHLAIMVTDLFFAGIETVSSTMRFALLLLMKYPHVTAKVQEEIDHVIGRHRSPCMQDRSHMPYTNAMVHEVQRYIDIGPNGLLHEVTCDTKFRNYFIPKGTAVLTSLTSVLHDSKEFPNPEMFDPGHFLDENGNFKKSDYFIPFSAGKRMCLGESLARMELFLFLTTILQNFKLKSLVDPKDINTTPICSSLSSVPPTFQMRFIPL
Description: (§1) The effect of the Zhicaowu–Hezi combination on CYP450 enzymes in RLM was evaluated by assessing the metabolic clearance rates of theophylline, metoprolol, bupropion, mephenytoin (CYP2c13), chlorzoxazone, testosterone, and diclofenac.
(§2) On day 15, the rats were humanely euthanized, and liver tissues were excised for microsomal preparation. […] Livers from each group were repeatedly washed with ice-cold phosphate buffered saline (PBS). […] Subsequently, they were blotted dry with filter paper, weighed, and homogenized by adding 4 mL of ice-cold PBS per gram of liver tissue. The mixture was homogenized in an ice bath. The liver homogenate was subjected to centrifugation at 10,000 RPM for 20 min at 4°C. The resulting supernatant was then combined with an ice-cold 88-mmol/L CaCl2 solution at a 1:1 ratio, and the mixture was homogenized in an ice bath for 5 min. The resulting solution was then centrifuged at 25,000 × g for 30 min at 4°C. The supernatant was discarded and the precipitate was repeatedly resuspended in PBS–20% glycerol buffer. The precipitate was then stored in a separate bottle at −80°C for backup. The protein concentration of the prepared RLM was determined using a bicinchoninic acid protein assay kit.
(§3) Preincubation was conducted for 5 min in a water bath at 37°C, after which NADPH (1 mmol/L) was added, and incubation continued for 30 min at 37°C. Once the incubation period elapsed, the reaction was terminated by the addition of an ice-cold IS-containing acetonitrile solution. The samples were vortexed for 2 min and centrifuged at 15,000 RPM for 10 min. The resulting supernatant was filtered through a 0.22-μm organic microporous membrane, and 20 μL of the filtered solution was injected into the HPLC assay. To prevent the organic solvents from inducing or inhibiting the enzyme, the volume fraction of organic solvents in the entire incubation system was maintained at 1%. […] The inhibitor group was added with corresponding inhibitor, while all other procedures remained identical.

CYP2b1 = molecular target: T2, CYP2b1 (Rattus norvegicus, UniProt P00176); assay: RLM incubation: metabolic clearance rate of bupropion (CYP2b1); details: RLM 0.5 mg/mL, 30 min 37°C, inhibitor added, blank control 7.92 ± 0.60, n = 3
T2 sequence (P00176 1-491): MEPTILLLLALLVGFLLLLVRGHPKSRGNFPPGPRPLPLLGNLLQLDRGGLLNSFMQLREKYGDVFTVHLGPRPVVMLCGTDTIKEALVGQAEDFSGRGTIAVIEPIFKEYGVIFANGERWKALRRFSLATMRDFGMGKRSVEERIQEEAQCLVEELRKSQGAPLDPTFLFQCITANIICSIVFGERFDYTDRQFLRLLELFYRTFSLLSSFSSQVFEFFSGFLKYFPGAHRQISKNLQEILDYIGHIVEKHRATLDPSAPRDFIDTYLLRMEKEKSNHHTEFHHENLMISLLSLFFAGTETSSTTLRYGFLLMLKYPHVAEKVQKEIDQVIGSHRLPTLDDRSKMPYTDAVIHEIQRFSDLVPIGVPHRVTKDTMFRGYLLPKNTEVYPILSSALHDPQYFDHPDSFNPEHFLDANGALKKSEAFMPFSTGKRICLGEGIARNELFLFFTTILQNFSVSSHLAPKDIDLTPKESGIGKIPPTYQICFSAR
Description: as §1, §2, §3

CYP3a1 = molecular target: T3, CYP3a1 (Rattus norvegicus, UniProt P04800)
T3 sequence (P04800 1-504): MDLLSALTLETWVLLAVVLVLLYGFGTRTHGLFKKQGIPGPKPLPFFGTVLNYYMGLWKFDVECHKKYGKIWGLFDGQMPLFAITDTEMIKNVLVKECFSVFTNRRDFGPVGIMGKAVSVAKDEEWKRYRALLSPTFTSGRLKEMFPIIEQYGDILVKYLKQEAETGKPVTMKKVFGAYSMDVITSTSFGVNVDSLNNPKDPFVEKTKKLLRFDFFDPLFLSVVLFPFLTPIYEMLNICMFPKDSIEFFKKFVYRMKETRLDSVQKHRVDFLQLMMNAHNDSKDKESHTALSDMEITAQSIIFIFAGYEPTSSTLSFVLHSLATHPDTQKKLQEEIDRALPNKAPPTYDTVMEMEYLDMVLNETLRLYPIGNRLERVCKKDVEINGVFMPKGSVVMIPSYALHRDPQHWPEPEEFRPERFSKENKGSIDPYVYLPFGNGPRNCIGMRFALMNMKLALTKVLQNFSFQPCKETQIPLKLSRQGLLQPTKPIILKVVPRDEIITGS
Description: as §1, §2, §3

CYP2d2 = molecular target: T4, CYP2d2 (Rattus norvegicus, UniProt P10634)
T4 sequence (P10634 1-500): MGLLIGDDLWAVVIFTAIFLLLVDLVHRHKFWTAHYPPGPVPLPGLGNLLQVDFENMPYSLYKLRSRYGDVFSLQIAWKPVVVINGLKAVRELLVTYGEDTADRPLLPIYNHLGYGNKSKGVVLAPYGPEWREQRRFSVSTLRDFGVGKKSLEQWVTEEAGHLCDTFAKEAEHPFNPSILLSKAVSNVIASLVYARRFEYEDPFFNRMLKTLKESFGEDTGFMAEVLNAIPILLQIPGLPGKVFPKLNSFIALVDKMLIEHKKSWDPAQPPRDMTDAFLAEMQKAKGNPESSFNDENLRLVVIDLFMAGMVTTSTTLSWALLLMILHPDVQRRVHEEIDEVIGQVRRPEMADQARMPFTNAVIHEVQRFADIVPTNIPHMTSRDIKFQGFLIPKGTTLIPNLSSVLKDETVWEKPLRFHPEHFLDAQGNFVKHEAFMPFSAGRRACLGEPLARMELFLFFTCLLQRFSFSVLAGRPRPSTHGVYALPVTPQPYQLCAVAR
Description: as §1, §2, §3

CYP1a2 = molecular target: T5, CYP1a2 (Rattus norvegicus, UniProt P04799); details: microsomes
T5 sequence (P04799 1-513): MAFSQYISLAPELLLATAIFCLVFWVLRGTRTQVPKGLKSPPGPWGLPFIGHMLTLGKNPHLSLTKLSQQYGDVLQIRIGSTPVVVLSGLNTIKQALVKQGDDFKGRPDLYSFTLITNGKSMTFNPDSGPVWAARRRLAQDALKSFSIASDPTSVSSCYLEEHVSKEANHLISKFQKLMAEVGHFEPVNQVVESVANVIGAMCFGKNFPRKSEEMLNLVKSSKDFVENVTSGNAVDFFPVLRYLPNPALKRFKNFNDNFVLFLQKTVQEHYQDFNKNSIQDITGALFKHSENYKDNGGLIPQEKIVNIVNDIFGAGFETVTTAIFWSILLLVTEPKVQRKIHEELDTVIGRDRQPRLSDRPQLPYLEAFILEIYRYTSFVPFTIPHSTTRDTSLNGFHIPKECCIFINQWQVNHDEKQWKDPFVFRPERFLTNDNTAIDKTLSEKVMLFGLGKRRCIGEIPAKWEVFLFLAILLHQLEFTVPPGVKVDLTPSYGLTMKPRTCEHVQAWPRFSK
Description: as §1, §2, §3

CYP2c11 = molecular target: T6, CYP2c11 (Rattus norvegicus, UniProt P08683); details: RLM 0.5 mg/mL, 30 min 37°C, inhibitor added, probe diclofenac; blank control 21.12 ± 3.80; n = 3
T6 sequence (P08683 1-500): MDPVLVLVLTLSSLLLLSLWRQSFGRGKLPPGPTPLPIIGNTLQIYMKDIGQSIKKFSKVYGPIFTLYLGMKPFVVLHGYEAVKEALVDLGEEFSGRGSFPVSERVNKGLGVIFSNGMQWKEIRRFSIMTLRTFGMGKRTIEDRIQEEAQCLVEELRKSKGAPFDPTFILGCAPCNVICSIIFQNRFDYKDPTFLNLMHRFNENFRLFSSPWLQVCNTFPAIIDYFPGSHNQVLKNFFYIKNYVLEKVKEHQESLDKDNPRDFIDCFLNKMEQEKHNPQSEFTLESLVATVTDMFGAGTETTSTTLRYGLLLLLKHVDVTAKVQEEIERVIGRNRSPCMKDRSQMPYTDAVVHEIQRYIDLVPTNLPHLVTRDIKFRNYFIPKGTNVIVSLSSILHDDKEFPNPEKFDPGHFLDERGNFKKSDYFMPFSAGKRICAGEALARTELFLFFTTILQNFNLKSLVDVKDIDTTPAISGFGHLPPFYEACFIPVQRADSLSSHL
Description: as §1, §2, §3

CYP2e1 = CYP2e1 (Rattus norvegicus, UniProt P05182); assay: RLM incubation: metabolic clearance rate of chlorzoxazone (CYP2e1); details: RLM 0.5 mg/mL, 30 min 37°C, inhibitor added, blank control 15.80 ± 0.34, n = 3
Chain of CYP2e1 (P05182 whole entry): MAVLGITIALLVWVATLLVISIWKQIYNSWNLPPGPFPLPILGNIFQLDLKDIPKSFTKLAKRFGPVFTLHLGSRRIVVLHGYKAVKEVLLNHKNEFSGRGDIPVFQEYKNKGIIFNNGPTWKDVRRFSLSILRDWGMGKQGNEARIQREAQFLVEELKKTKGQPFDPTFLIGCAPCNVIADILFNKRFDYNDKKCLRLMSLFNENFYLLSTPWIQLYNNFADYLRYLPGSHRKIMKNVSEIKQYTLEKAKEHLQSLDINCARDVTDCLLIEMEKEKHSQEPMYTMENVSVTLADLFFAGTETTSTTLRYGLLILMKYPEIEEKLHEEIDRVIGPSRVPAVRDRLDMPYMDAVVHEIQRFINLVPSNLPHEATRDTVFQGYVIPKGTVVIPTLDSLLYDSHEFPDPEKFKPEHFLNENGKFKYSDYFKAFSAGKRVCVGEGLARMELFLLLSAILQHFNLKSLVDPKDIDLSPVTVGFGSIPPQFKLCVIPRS
Description: as §1, §2
Preincubation was conducted for 5 min in a water bath at 37°C, after which NADPH (1 mmol/L) was added, and incubation continued for 30 min at 37°C. […]

[1] = Pharmacokinetics of the seven cocktail probe drugs in blank control rats (Group C); details: for AUC(0-inf) / AUC(0-t) / CL/F / Cmax / half-life: rat, in vivo, po; for t1/2 z: probe drug in rat plasma, cocktail by gavage, Group C (0.3% CMC-Na 14 d), n = 8
Description: The effect of the Zhicaowu–Hezi combination on CYP450 enzymes in rats was evaluated by examining the pharmacokinetics of theophylline (CYP1a2), metoprolol (CYP2d2), bupropion (CYP2b1), omeprazole (CYP2c13), chlorzoxazone (CYP2e1), testosterone (CYP3a1), and diclofenac (CYP2c11).
The collected blood was placed in sodium heparin-treated centrifuge tubes and centrifuged at 4°C for 10 min at 3,000 RPM. […] After 10 min of sedimentation, the supernatant was extracted through a 0.22-μm microporous membrane, 20 μL of which was injected into HPLC. The pharmacokinetic parameters of each probe drug were calculated using the non-atrial compartment model in Drug and Statistics software (DAS, 3.0; Shanghai, China).

[2] = ref Jin et al., 2024, cited from earlier work

Structure (SMILES) | AUC(0-inf) [1] [ng·h/mL] | AUC(0-t) [1] [ng·h/mL] | CL/F [1] [mL/min/kg] | Cmax [1] [ng/mL] | half-life [1] [h] | further results
CC(=O)N1CCN(c2ccc(OCC3COC(Cn4ccnc4)(c4ccc(Cl)cc4Cl)O3)cc2)CC1 (stereo not shown) [Ketoconazole, ketoconazole] |  |  |  |  |  | CYP2c13(%) metabolic clearance rate of probe drug (CYP2c13): 17.26 ± 1.08%; CYP2b1(%) metabolic clearance rate of probe drug (CYP2b1): 7.11 ± 0.17%; CYP3a1 (%) metabolic clearance rate of probe drug (CYP3a1): 5.45 ± 2.49 %; CYP2d2 (%) metabolic clearance rate of probe drug (CYP2d2): 12.73 ± 1.11%; CYP1a2 (%) metabolic clearance rate of probe drug (CYP1a2): 36.04 ± 1.71%
Nc1ccc(S(=O)(=O)Nc2ccnn2-c2ccccc2)cc1 [Sulfaphenazolum] |  |  |  |  |  | CYP2c13(%) metabolic clearance rate of probe drug (CYP2c13): 16.47 ± 1.34%; CYP2b1(%) metabolic clearance rate of probe drug (CYP2b1): 7.74 ± 0.98%; CYP3a1 (%) metabolic clearance rate of probe drug (CYP3a1; RLM 0.5 mg/mL, 30 min 37°C, inhibitor added, probe testosterone, blank control 25.04 ± 1.93, n = 3): 25.69 ± 1.69%; CYP2c11(%) metabolic clearance rate of probe drug (CYP2c11): 6.16 ± 0.65 %; CYP2d2 (%) metabolic clearance rate of probe drug (CYP2d2; RLM 0.5 mg/mL, 30 min 37°C, inhibitor added, probe metoprolol, blank control […] ± 2.12, n = 3): 13.50 ± 0.30%; CYP2e1 (%) metabolic clearance rate of probe drug (CYP2e1): 16.11 ± 0.18%
CC(NC(C)(C)C)C(=O)c1cccc(Cl)c1 (stereo not shown) [bupropion] | 16300 ± 1410 | 15800 ± 1320 | 7.16 | 1300 ± 93 | 18.7 ± 0.948 | 
O=C(O)Cc1ccccc1Nc1c(Cl)cccc1Cl [diclofenac] | 5470 ± 358 | 5230 ± 465 | 42.3 | 1080 ± 115 | 4.98 ± 0.557 | 
CC1(C)[C@@H](O[C@H]2O[C@H](C(=O)O)[C@@H](O)[C@H](O)[C@H]2O[C@@H]2O[C@H](C(=O)O)[C@@H](O)[C@H](O)[C@H]2O)CC[C@]2(C)[C@H]3C(=O)C=C4[C@@H]5C[C@@](C)(C(=O)O)CC[C@]5(C)CC[C@@]4(C)[C@]3(C)CC[C@@H]12 [glycyrrhizin] |  |  |  |  |  | reduction of systemic exposure to aconitine ([2]; glycyrrhizin by intravenous injection): 33%; reduction of systemic exposure to aconitine ([2]; glycyrrhizin by oral gavage): 27%
COCCc1ccc(OCC(O)CNC(C)C)cc1 (stereo not shown) [metoprolol] | 10100 ± 1480 | 9600 ± 988 | 26.3 | 891 ± 114 | 7.95 ± 1.15 | 
COc1ccc2[nH]c([S+]([O-])Cc3ncc(C)c(OC)c3C)nc2c1 (stereo not shown) [omeprazole] | 3900 ± 394 | 3840 ± 372 | 43.4 | 995 ± 78 |  | t1/2 z [1]: 4.689 ± 0.467 h
C[C@]12CC[C@H]3[C@@H](CCC4=CC(=O)CC[C@@]43C)[C@@H]1CC[C@@H]2O [testosterone] | 1410 ± 69 | 1210 ± 81 | 66.8 | 295 ± 54 | 11.1 ± 1.11 | 
Cn1c(=O)c2[nH]cnc2n(C)c1=O [theophylline] | 22500 ± 1440 | 21900 ± 1250 | 7.75 | 1810 ± 94 |  | t1/2 z [1]: 5.273 ± 0.526 h
